The target in the test is T1, Human BCL-XL protein (N-terminal HiBiT tagged BCL-XL in HT1080 cells) (Homo sapiens, UniProt Q07817).
T1 construct: expressed in transfected cells; host or cells: HT-1080 (ATCC CCL-121), stably transduced with lentivirus pLV-UBC-N-HiBiT-BCL-XL-PGK-puro and selected with puromycin
The experiment in a line: HiBiT based degradation assay. Format: cell-based. The conditions noted are these: HT1080 cells expressing HiBiT-BCL-XL, 24 h; for Ymin (24 h): BCL-XL degradation normalized with DMSO control; for DC50: BCL-XL degradation, read-out: EC50 (24 h). The method in brief: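 This HiBiT degradation assay measured loss of BCL-XL in HT1080 cells that stably express an N-terminal HiBiT-BCL-XL fusion delivered by lentivirus. Cells were added to compound-spotted 384-well plates, and luminescence was read on a PHERAstar FSX reader. Signal was expressed relative to DMSO controls, curves were fitted by four-parameter logistic regression, and for hook-shaped curves the Ymin point served as the bottom plateau when calculating EC50.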
On the technique in general: HiBiT is a short tag that completes a luciferase, so light tracks the accessible tagged protein.

Where only a bound is given, the exact number is not on record here.

T1 sequence (Q07817 whole entry): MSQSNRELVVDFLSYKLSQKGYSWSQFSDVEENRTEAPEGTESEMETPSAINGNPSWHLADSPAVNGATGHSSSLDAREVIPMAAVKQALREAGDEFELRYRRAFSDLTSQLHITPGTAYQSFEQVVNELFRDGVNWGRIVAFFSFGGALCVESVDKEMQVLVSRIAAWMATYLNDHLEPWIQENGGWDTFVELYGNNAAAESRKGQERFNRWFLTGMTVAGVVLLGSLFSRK

With `Cc1c(OCCCC2CCN(CCc3ccc4c(C5CCC(=O)NC5=O)nn(C)c4c3)CC2)cccc1-c1ccc(N2CCc3cccc(C(=O)Nc4nc5ccccc5s4)c3C2)nc1C(=O)O` (stereo not drawn) [Compound 303, 6-(8-(benzo[d]thiazol-2-ylcarbamoyl)-3,4-dihydroisoquinolin-2(1H)-yl)-3-(3-(3-(1-(2-(3-(2,6-dioxopiperidin-3-yl)-1-methyl-1H-indazol-6-yl)ethyl)piperidin-4-yl)propoxy)-2-methylphenyl)picolinic acid], the “Ymin (24 h)” value is reported as “A (Ymin < 50%)” and the DC50 was < 100 nM.

For `Cc1c(OCCCC2CCN(Cc3ccc4c(C5CCC(=O)NC5=O)nn(C)c4c3)CC2)cccc1-c1ccc(N2CCc3cccc(C(=O)Nc4nc5ccccc5s4)c3C2)nc1C(=O)O` (stereo not drawn) [Compound 304, 6-(8-(benzo[d]thiazol-2-ylcarbamoyl)-3,4-dihydroisoquinolin-2(1H)-yl)-3-(3-(3-(1-((3-(2,6-dioxopiperidin-3-yl)-1-methyl-1H-indazol-6-yl)methyl)piperidin-4-yl)propoxy)-2-methylphenyl)picolinic acid], the “Ymin (24 h)” value was “B (50% ≤ Ymin < 70%)” and the DC50 was < 100 nM.

For `Cc1c(OCCCC2CCN(CCCc3ccc4c(C5CCC(=O)NC5=O)nn(C)c4c3)CC2)cccc1-c1ccc(N2CCc3cccc(C(=O)Nc4nc5ccccc5s4)c3C2)nc1C(=O)O` (stereo not drawn) [Compound 305, 6-(8-(benzo[d]thiazol-2-ylcarbamoyl)-3,4-dihydroisoquinolin-2(1H)-yl)-3-(3-(3-(1-(3-(3-(2,6-dioxopiperidin-3-yl)-1-methyl-1H-indazol-6-yl)propyl)piperidin-4-yl)propoxy)-2-methylphenyl)picolinic acid], the “Ymin (24 h)” value was “A (Ymin < 50%)” and the DC50 was < 100 nM.

As for `Cc1c(OCCCC2CCN(C3CCN(c4ccc5c(C6CCC(=O)NC6=O)nn(C)c5c4)CC3)CC2)cccc1-c1ccc(N2CCc3cccc(C(=O)Nc4nc5ccccc5s4)c3C2)nc1C(=O)O` (stereo not drawn) [Compound 306, 6-(8-(benzo[d]thiazol-2-ylcarbamoyl)-3,4-dihydroisoquinolin-2(1H)-yl)-3-(3-(3-(1′-(3-(2,6-dioxopiperidin-3-yl)-1-methyl-1H-indazol-6-yl)-[1,4′-bipiperidin]-4-yl)propoxy)-2-methylphenyl)picolinic acid], the “Ymin (24 h)” value is given as “A (Ymin < 50%)” and the DC50 is < 100 nM.

In the case of `Cc1c(OCCCc2ccc(CC(=O)Nc3ccc4c(C5CCC(=O)NC5=O)nn(C)c4c3)cn2)cccc1-c1ccc(N2CCc3cccc(C(=O)Nc4nc5ccccc5s4)c3C2)nc1C(=O)O` (stereo not drawn) [Compound 309, 6-[8-(1,3-benzothiazol-2-ylcarbamoyl)-3,4-dihydro-1H-isoquinolin-2-yl]-3-[3-[3-[5-[2-[[3-(2,6-dioxo-3-piperidyl)-1-methyl-indazol-6-yl]amino]-2-oxo-ethyl]-2-pyridyl]propoxy]-2-methyl-phenyl]pyridine-2-carboxylic acid], the “Ymin (24 h)” value is reported as “B (50% ≤ Ymin < 70%)” and the DC50 was in the range of 100 to 1000 nM.

For the compound `Cc1c(O[C@H]2CC[C@@H](CCCC3CCN(c4ccc5c(C6CCC(=O)NC6=O)nn(C)c5c4)CC3)CC2)cccc1-c1ccc(N2CCc3cccc(C(=O)Nc4nc5ccccc5s4)c3C2)nc1C(=O)O` (stereo partly drawn) [Compound 311a, 6-(8-(benzo[d]thiazol-2-ylcarbamoyl)-3,4-dihydroisoquinolin-2(1H)-yl)-3-(3-(((1r,4s)-4-(3-(1-(3-(2,6-dioxopiperidin-3-yl)-1-methyl-1H-indazol-6-yl)piperidin-4-yl)propyl)cyclohexyl)oxy)-2-methylphenyl) picolinic acid], the “Ymin (24 h)” value was “B (50% ≤ Ymin < 70%)” and the DC50 was < 100 nM.

Consider `Cc1c(O[C@H]2CC[C@H](CCCC3CCN(c4ccc5c(C6CCC(=O)NC6=O)nn(C)c5c4)CC3)CC2)cccc1-c1ccc(N2CCc3cccc(C(=O)Nc4nc5ccccc5s4)c3C2)nc1C(=O)O` (stereo partly drawn) [Compound 311b, 6-(8-(benzo[d]thiazol-2-ylcarbamoyl)-3,4-dihydroisoquinolin-2(1H)-yl)-3-(3-(((1s,4r)-4-(3-(1-(3-(2,6-dioxopiperidin-3-yl)-1-methyl-1H-indazol-6-yl)piperidin-4-yl)propyl)cyclohexyl)oxy)-2-methylphenyl)picolinic acid], for which the “Ymin (24 h)” value is reported as “B (50% ≤ Ymin < 70%)” and the DC50 is < 100 nM.

Regarding `Cc1c(OCCCC2CCN(CC3CN(c4ccc5c(C6CCC(=O)NC6=O)nn(C)c5c4)C3)CC2)cccc1-c1ccc(N2CCc3cccc(C(=O)Nc4nc5ccccc5s4)c3C2)nc1C(=O)O` (stereo not drawn) [Compound 312, 6-(8-(benzo[d]thiazol-2-ylcarbamoyl)-3,4-dihydroisoquinolin-2(1H)-yl)-3-(3-(3-(1-((1-(3-(2,6-dioxopiperidin-3-yl)-1-methyl-1H-indazol-6-yl)azetidin-3-yl)methyl)piperidin-4-yl)propoxy)-2-methylphenyl)picolinic acid], the “Ymin (24 h)” value is given as “A (Ymin < 50%)” and the DC50 was < 100 nM.

With `Cn1nc(C2CCC(=O)NC2=O)c2ccc(NC(=O)CN3CCC(CCCOc4cccc(-c5ccc(N6CCc7cccc(C(=O)Nc8nc9ccccc9s8)c7C6)nc5C(=O)O)c4C(F)(F)F)CC3)cc21` (stereo not drawn) [Compound 313, 6-[8-(1,3-benzothiazol-2-ylcarbamoyl)-3,4-dihydro-1H-isoquinolin-2-yl]-3-[3-[3-[1-[2-[[3-(2,6-dioxo-3-piperidyl)-1-methyl-indazol-6-yl]amino]-2-oxo-ethyl]-4-piperidyl]propoxy]-2-(trifluoromethyl)phenyl]pyridine-2-carboxylic acid], the “Ymin (24 h)” value was “A (Ymin < 50%)” and the DC50 is < 100 nM.

Consider `Cn1nc(C2CCC(=O)NC2=O)c2ccc(NC(=O)CN3CCC(CCCOc4cccc(-c5ccc(N6CCc7cccc(C(=O)Nc8nc9ccccc9s8)c7C6)nc5C(=O)O)c4)CC3)cc21` (stereo not drawn) [Compound 314, 6-(8-(benzo[d]thiazol-2-ylcarbamoyl)-3,4-dihydroisoquinolin-2(1H)-yl)-3-(3-(3-(1-(2-((3-(2,6-dioxopiperidin-3-yl)-1-methyl-1H-indazol-6-yl)amino)-2-oxoethyl)piperidin-4-yl)propoxy)phenyl)picolinic acid], for which the “Ymin (24 h)” value is reported as “B (50% ≤ Ymin < 70%)” and the DC50 was < 100 nM.

In the case of `Cc1c(O[C@H]2CC[C@H](CCCN3CCN(c4ccc5c(N6CCC(=O)NC6=O)nn(C)c5c4)CC3)CC2)cccc1-c1ccc(N2CCc3cccc(C(=O)Nc4nc5ccccc5s4)c3C2)nc1C(=O)O` [Compound 316a, 6-(8-(benzo[d]thiazol-2-ylcarbamoyl)-3,4-dihydroisoquinolin-2(1H)-yl)-3-(3-(((1s,4r)-4-(3-(4-(3-(2,4-dioxotetrahydropyrimidin-1(2H)-yl)-1-methyl-1H-indazol-6-yl)piperazin-1-yl)propyl)cyclohexyl)oxy)-2-methylphenyl)picolinic acid], the “Ymin (24 h)” value is reported as “A (Ymin < 50%)” and the DC50 was < 100 nM.

In the case of `Cc1c(OCCCC2CCN(CC(=O)Nc3ccc4c(N5CCC(=O)NC5=O)nn(C)c4c3)CC2)cccc1-c1ccc(N2CCc3cccc(C(=O)Nc4nc5ccccc5s4)c3C2)nc1C(=O)O` [Compound 317, 6-(8-(benzo[d]thiazol-2-ylcarbamoyl)-3,4-dihydroisoquinolin-2(1H)-yl)-3-(3-(3-(1-(2-((3-(2,4-dioxotetrahydropyrimidin-1(2H)-yl)-1-methyl-1H-indazol-6-yl)amino)-2-oxoethyl)piperidin-4-yl)propoxy)-2-methylphenyl)picolinic acid], the “Ymin (24 h)” value is listed as “B (50% ≤ Ymin < 70%)” and the DC50 is < 100 nM.

On to `Cc1c(O[C@H]2CC[C@H](CCCN3CCN(c4ccc5c(C6CCC(=O)NC6=O)nn(C)c5c4)C(C)(C)C3)CC2)cccc1-c1ccc(N2CCc3cccc(C(=O)Nc4nc5ccccc5s4)c3C2)nc1C(=O)O` (stereo partly drawn) [Compound 318a, 6-(8-(benzo[d]thiazol-2-ylcarbamoyl)-3,4-dihydroisoquinolin-2(1H)-yl)-3-(3-(((1s,4r)-4-(3-(4-(3-(2,6-dioxopiperidin-3-yl)-1-methyl-1H-indazol-6-yl)-3,3-dimethylpiperazin-1-yl)propyl)cyclohexyl)oxy)-2-methylphenyl)picolinic acid], for which the “Ymin (24 h)” value is on record as “A (Ymin < 50%)” and the DC50 was < 100 nM.

With `Cn1nc(C2CCC(=O)NC2=O)c2ccc(N3CCN(CCCC[C@H]4CC[C@H](Oc5cccc(-c6ccc(N7CCc8cccc(C(=O)Nc9nc%10ccccc%10s9)c8C7)nc6C(=O)O)c5C(F)(F)F)CC4)CC3)cc21` (stereo partly drawn) [Compound 319a, 6-(8-(benzo[d]thiazol-2-ylcarbamoyl)-3,4-dihydroisoquinolin-2(1H)-yl)-3-(3-(((1s,4r)-4-(4-(4-(3-(2,6-dioxopiperidin-3-yl)-1-methyl-1H-indazol-6-yl)piperazin-1-yl)butyl)cyclohexyl)oxy)-2-(trifluoromethyl)phenyl)picolinic acid], the “Ymin (24 h)” value is given as “A (Ymin < 50%)” and the DC50 was < 100 nM.

Turning to `Cc1c(O[C@H]2CC[C@H](CCCCN3CCN(c4ccc5c(C6CCC(=O)NC6=O)nn(C)c5c4)C(C)(C)C3)CC2)cccc1-c1ccc(N2CCc3cccc(C(=O)Nc4nc5ccccc5s4)c3C2)nc1C(=O)O` (stereo partly drawn) [Compound 322a, 6-(8-(benzo[d]thiazol-2-ylcarbamoyl)-3,4-dihydroisoquinolin-2(1H)-yl)-3-(3-(((1s,4r)-4-(4-(4-(3-(2,6-dioxopiperidin-3-yl)-1-methyl-1H-indazol-6-yl)-3,3-dimethylpiperazin-1-yl)butyl)cyclohexyl)oxy)-2-methylphenyl)picolinic acid], the “Ymin (24 h)” value was “A (Ymin < 50%)” and the DC50 was < 100 nM.

The values above are taken from US20240238423A9, “TETRAHYDROISOQUINOLINE HETEROBIFUNCTIONAL BCL-XL DEGRADERS” (Treeline Biosciences, Inc., priority 2022, published 2024).
